Entries after “also recorded” stand apart in the source; their conditions may differ.
Tests used:
[1] = tested on: myenteric intrinsic primary afferent neurons (IPANs; AH neurons); test: Sustained slow postsynaptic excitation (SSPE) evoked by 1 Hz, 4 min stimulation of synaptic inputs; intracellular recording in ileum myenteric plexus; assay type: cell-based, guinea pig; conditions: for effect on the excitability increase associated with SSPE: stimulation of presynaptic inputs 1 Hz for 4 min
Excerpt: (§1) Guinea pigs from the inbred Hartley strain colony of the Department of Anatomy and Cell Biology at the University of Melbourne were used. All efforts were made to minimize animal suffering and numbers of animals used. The experiments conformed to National Health and Medical Research Council of Australia guidelines and were approved by the University of Melbourne Animal Experimentation Ethics Committee. Guinea pigs of either sex (180-250 g) were stunned by a blow to the head and killed by severing the carotid arteries and spinal cord, and segments of ileum were removed into physiological saline. The segments were placed in a recording dish lined with silicone elastomer, opened along the line of the mesenteric attachment and pinned flat under moderate tension with the mucosa uppermost. During dissection, the tissue was immersed in physiological saline (composition in mM: NaCl 118, KCl 4.8, NaHCO3 25, NaH2PO4 1.0, MgSO4 1.2, glucose 11.1, CaCl2 2.5) and kept at room temperature. The mucosa, submucosa and circular smooth muscle were removed to expose the myenteric plexus. The recording dish (volume 4 mL) was then placed on the stage of an inverted microscope and continuously superfused (4 mL/min) with physiological saline that had been preheated to yield a bath temperature of 35-37° C. The superperfusion solution was bubbled with 95% O2 and 5% CO2 and contained nicardipine (3 μM) and hyoscine (1 μM) to inhibit muscle movement. The tissue was equilibrated with the perfusate for 1-2 h before recording was commenced.
(§2) Individual neurons were impaled using conventional intracellular microelectrodes (resistance, […]) filled with 1 M KCl. Signals were amplified using an AxoClamp 2B amplifier (Axon instruments, Foster City, Calif., USA), digitized at 5-20 kHz and stored using PC-based data acquisition software (Axoscope 8.0). Measurements were made after allowing the impalements to stabilize for at least 15 min without applying intracellular holding current. Neurons were identified as AH cells based on the presence of a hump on the falling phase of the action potential and, in most cells, a late after-hyperpolarising potential following the action potential. Stimuli were applied to inter-ganglionic connectives at a frequency of 1 Hz, via a fine tungsten stimulating electrode (tip diameter<50 μm) that was placed on a circumferentially located internodal strand adjacent to the ganglion. Pulses were 0.1 ms in duration and <0.3 mA in intensity.
(§3) Neuronal excitability was assessed, by injecting 500 ms depolarizing current pulses (0.05-0.2 nA). The depolarizing pulses were delivered at intervals of 40 s. The mean excitability was evaluated by averaging the numbers of action potentials evoked by the 6 depolarizing current pulses for periods of 4 min, prior to the 1 Hz stimulus, around the peak of the response, and for a period of 4 min after the end of the stimulus. To determine input resistance (Rin), small hyperpolarizing current pulses (duration 100 ms; intensity<0.02 nA) were injected before each depolarizing pulse. The membrane potential (MP) was sampled each 40 s. MP, Rin, and numbers of action potentials in response to depolarizing pulses were determined.

[2] = tested on: myenteric intrinsic primary afferent neurons (IPANs; AH neurons); test: Direct effect of compounds on excitability, membrane potential, input resistance and action potentials of AH neurons (no or before presynaptic stimulation); assay type: cell-based, guinea pig
Excerpt: as §1, §2, §3

**Q.** `O=S(=O)(NCCNC/C=C/c1ccc(Br)cc1)c1cccc2cnccc12` [H89] was tested. Which “effect on the excitability increase associated with SSPE” value ([1]; 1 μM) did it give?
**A.** no effect; also recorded: not changed

**Q.** What about the “effect on excitability, membrane potential or input resistance before stimulation of presynaptic inputs” value (from here on “effect on excitability … of presynaptic inputs”) ([2]; 1 μM, about 15-25 min exposure) of the same compound?
**A.** no changes

**Q.** With `[H]/N=C(/N)SCCCn1cc(C2=C(c3cn(C)c4ccccc34)C(=O)NC2=O)c2ccccc21` [RO31-8220, 3-[1-[3-(Amidinothio)propyl-1H-indol-3-yl]-3-(1-methyl-1H-indol-3-yl)maleimide Bisindolylmaleimide IX, methanesulfonate] as the compound, how does the “effect on the excitability increase associated with SSPE” value ([1]; 1 μM) read?
**A.** not reduced

**Q.** What about the “effect on the excitability increase associated with SSPE” value ([1]; 3.3 μM, n=6, P<0.1) of the same compound?
**A.** reduced the degree to which the excitability increased; also recorded: reduction in the increase of AH neuron excitability

**Q.** And the “effect on antidromic action potential generation” value ([2]; 3.3 μM)?
**A.** did not cause a depression

**Q.** And the “effect on excitability … of presynaptic inputs” value ([2]; 3.3 μM, 15 min exposure)?
**A.** without affecting

**Q.** And the “effect on antidromic action potentials” value ([2]; 10 μM, restored by increasing stimulus strength)?
**A.** sometimes suppressed

**Q.** Which results are given for calphostin C?
**A.** reversal of excitability already enhanced by successive stimuli (maintenance of SSPE) ([1]; 1 μM, added after SSPE had been enhanced): did not restore excitability to its pre-stimulus level; effect on the excitability increase associated with SSPE ([1]; 1 μM): blocked; effect on the excitability increase associated with SSPE ([1]; 1 μM, listed as Calphostin C): substantially reduced; effect on excitability, membrane potential or input resistance before stimulation of presynaptic inputs ([2]; 1 μM, about 15-25 min exposure): did not affect

**Q.** With `CN[C@@H]1C[C@H]2O[C@@](C)([C@@H]1OC)n1c3ccccc3c3c4c(c5c6ccccc6n2c5c31)C(=O)NC4` [staurosporine] as the compound, how does the “decrease of the peak change in excitability during SSPE” value ([1]; 1 μM, stimulation 1 Hz for 4 min, n=6, P<0.01 vs control) read?
**A.** about 75%

**Q.** What about the “effect on the excitability increase associated with SSPE” value ([1]; 1 μM) of the same compound?
**A.** significantly smaller or no increase in neuronal excitability

**Q.** What about the “effect on excitability … of presynaptic inputs” value ([2]; 1 μM, about 15-25 min exposure) of the same compound?
**A.** did not cause any change

**Q.** `CCCC(=O)O[C@@H]1[C@@H](C)[C@@]2(O)[C@@H](C=C(CO)C[C@]3(O)C(=O)C(C)=C[C@@H]23)[C@@H]2C(C)(C)[C@]12OC(=O)CCC` [PDBu, phorbol 12, 13 dibutyrate] was tested. Which “effect on excitability of the neuron” value ([2]; 1 μM, example neuron, FIG. 5A) did it give?
**A.** increased the excitability

**Q.** What about the depolarization ([2]; 1 μM, example neuron, FIG. 5B) of the same compound?
**A.** about 8 mV

**Q.** What about the “increase of input resistance” value ([2]; 1 μM, example neuron, FIG. 5C) of the same compound?
**A.** about 100 MΩ

**Q.** What about the “amplitude of the after-hyperpolarizing potential (AHP) during exposure” value ([2]; 0.2-1 μM in bath for 5-10 min) of the same compound?
**A.** decreased

**Q.** And the “duration of effect beyond washing out of the compound” value ([2]; 0.2-1 μM in bath for 5-10 min)?
**A.** ≥ 10 min
